Measurements from US5091539A, “Azolyl cycloalkanol derivatives and agricultural fungicides” (Shionogi & Co., Ltd., priority 1984, dated 1992).
≈ marks a conversion by molar mass, not a printed value. Each block holds one compound with its values, some of them ahead of it.

How the values were obtained:
Rhizoctonia solani = assay: Control test to damping-off of cucumber (Rhizoctonia solani); format: in vivo; conditions: 31.3 ppm, soil drench, 14 days
Procedure: (1) The fungus causing damping-off of cucumber seedlings, Rhizoctonia solani or Fusarium oxysporum was cultured on a wheat bran medium at 28° C. for 5 days, which was mixed with sterilized soil and cultured for 2 days to prepare the inoculum. Sterilized soil (150 g) was put into a pot of 9 cm in diameter. The surface of the spot was covered with the above inoculum. […] Twenty cucumber seeds (Cultivar: Matsukaze) were sown 2 days after. The pots were kept at 30°±2° C. for 14 days. The infection was observed 14 days after and disease degree and percent disease degree were obtained by setting an evaluation index for each disease sympton.
(2) Evaluation [formula] wherein a: number of seeds without germination b: number of seedlings showing damping-off c: number of wilted seedlings d: number of seedlings being a little brownish in cotyledons or at the bottom of the stem e: number of uninfected seedlings [formula] wherein a: number of seeds without germination or seedlings with damping-off b: number of wilted seedlings c: number of seedlings being a little brownish in cotyledons or at the bottom of the stem d: number of uninfected seedlings [formula]

Sphaerotheca fuliginea [1] = assay: Control test to powdery mildew of cucumber by vapor (filter paper disks); format: in vivo
Procedure: (1) The first leaves of young cucumber (Cultivar: Matsukaze) planted in pot of 9 cm in diameter were inoculated with spore suspension of Sphaerotheca fuliginea. After the plants were kept in a greenhouse for 2 days, thin cover plates, 15 mm in diameter, were put on the first leaves. Filter paper disks soaked with 80 μl of test solution at a concentration of 31.3, 7.8, 2.0 or 0.5 ppm were put on the plates for 3 days. Disease degrees were observed 14 days after the inoculation.
It is evaluated as + when an inhibition zone was observed around the plate, as ± when the inhibition zone has nearly the same diameter (8 mm) as that of plate or as - when there is no inhibition zone.
(§1) (1) Test methods and evaluation are the same as those in Tests 2, 4 and 6.

[2] = tested on: powdery mildew of cucumber and Borytis rot (gray mold) of cucumber; assay: Comparative test of cis- and trans-isomers; format: in vivo; conditions: cis isomer vs trans isomer, about
Description: Each cis- and trans-isomers of 1-(4-chlorophenyl)-2-(1,2,4-triazol-1-yl)cyclohexanol (Compound 22 and the trans-isomer)) and 1-(4-fluorophenyl)-2-(1,2,4-triazol-1-yl)cyclohexanol (Compound 28 and the trans-isomer) are subjected to control test to powdery mildew of cucumber and to Borytis rot (gray mold) of cucumber.
as §1

Sphaerotheca fuliginea [3] = assay: Control test to powdery mildew of cucumber (foliar and soil treatment); format: in vivo; conditions: index 0-10
Sclerotinia sclerotiorum = assay: Control test to Sclerotinia rot of cucumber; format: in vivo
Description: (1) This test was practised in the same manner as in the above test, control test of Botrytis rot (gray mold) of cucumber, except for using the mycelium of Sclerotinia sclerotiorum as inoculm. The same as in test 2.

Botrytis cinerea = assay: Control test of Botrytis rot (gray mold) of cucumber; format: in vivo
Puccinia coronata = assay: Control test of crown rust of oat; format: in vivo
Procedure: (1) Young oats (Cultivar: Pc38) grown in pots in a greenhouse were (i) sprayed with 10 ml each of solution of the test compounds at a prescribed concentration and after air-drying, they were inoculated with 15 mg of uredospores of Puccinia coronata per 20 pots (protective spraying) or (ii) sprayed with the test solution 3 days after inoculation of uredospores. After each plant was kept at 20°-25° C. in a greenhouse for 2 weeks, number of uredia was counted on the first leaf.

Cladosporium herbarum = assay: Anti-fungal activity in vitro; format: cell-based; conditions: 48 h, GY medium, 28° C., 2 days
Procedure: (§2) (1) Each test compound was diluted by two-fold dilution with GY medium (2% glucose and 0.4% yeast extract) containing 0.01% Tween 80 (trademark). Every diluted solution was inoculated with spore suspension (10^5-5 spores/ml) of Alternaria kikuchiana or a hyphae disk with agar (4 mm in diameter) of other fungi and incubated at 28° C. for 2 days.

Diaporthe citri = assay: Anti-fungal activity in vitro; format: cell-based; conditions: 48 h, GY medium, 28° C., 2 days
Procedure: as §2

Pyrenophora graminea = assay: Anti-fungal activity in vitro; format: cell-based; conditions: 48 h, GY medium, 28° C., 2 days
Procedure: as §2

Monilinia fructicola = assay: Anti-fungal activity in vitro; format: cell-based; conditions: 48 h, GY medium, 28° C., 2 days
Procedure: as §2

Alternaria kikuchiana = assay: Anti-fungal activity in vitro; format: cell-based; conditions: 48 h, GY medium, 28° C., 2 days, spore suspension
Procedure: as §2

Corticium rolfsii = assay: Anti-fungal activity in vitro; format: cell-based; conditions: Agroathelia rolfsii, 48 h; GY medium, 28° C., 2 days
Procedure: as §2

Ustilago nuda = assay: Anti-fungal activity in vitro; format: cell-based; conditions: 48 h, GY medium, 28° C., 2 days
Procedure: as §2

Cochiobolus sativus = assay: Anti-fungal activity in vitro; format: cell-based; conditions: 48 h; GY medium, 28° C., 2 days
Procedure: as §2

SMILES: O[C@@]1(c2ccc(F)cc2)CCCC[C@H]1n1cncn1 (relative stereo) [Compound 28, 1-(4-fluorophenyl)-2-(1,2,4-triazol-1-yl)cyclohexanol]
Disease Degree (Rhizoctonia solani): 8
Percent Disease Control (Rhizoctonia solani): 92%
Powdery mildew, Vapor Effect (Sphaerotheca fuliginea [1]; Table 9, 2.0 ppm): -
Powdery mildew, Vapor Effect (Sphaerotheca fuliginea [1]; Table 9, 7.8 ppm): ±
Powdery mildew, Vapor Effect (Sphaerotheca fuliginea [1]; Table 9, 31.3 ppm): +
times more effective than the corresponding trans isomer [2]: 4-16 times
Powdery mildew, Foliar Treatment, Curative Effect (Sphaerotheca fuliginea [3]; Table 9, 0.03 ppm): 0
Powdery mildew, Foliar Treatment, Protective Effect (Sphaerotheca fuliginea [3]; Table 9, 0.03 ppm): 0
Powdery mildew, Foliar Treatment, Curative Effect (Sphaerotheca fuliginea [3]; Table 9, 0.12 ppm): 7 (Disease sign is observed on the leaf in about 20%.)
Powdery mildew, Foliar Treatment, Protective Effect (Sphaerotheca fuliginea [3]; Table 9, 0.12 ppm): 0
Powdery mildew, Foliar Treatment, Curative Effect (Sphaerotheca fuliginea [3]; Table 9, 0.5 ppm): 10
Powdery mildew, Foliar Treatment, Protective Effect (Sphaerotheca fuliginea [3]; Table 9, 0.5 ppm): 5 (Disease sign is observed on the leaf in about 30%.)
Powdery mildew, Soil Treatment, Protective Effect (Sphaerotheca fuliginea [3]; Table 9, 0.5 ppm): 0
Powdery mildew, Foliar Treatment, Curative Effect (Sphaerotheca fuliginea [3]; Table 9, 2.0 ppm): 10
Powdery mildew, Foliar Treatment, Protective Effect (Sphaerotheca fuliginea [3]; Table 9, 2.0 ppm): 10
Powdery mildew, Soil Treatment, Protective Effect (Sphaerotheca fuliginea [3]; Table 9, 2.0 ppm): 9
Powdery mildew, Soil Treatment, Protective Effect (Sphaerotheca fuliginea [3]; Table 9, 7.8 ppm): 10
Powdery mildew, Soil Treatment, Protective Effect (Sphaerotheca fuliginea [3]; Table 9, 31.3 ppm): 10
Foliar Treatment, Curative Effect (Sphaerotheca fuliginea [3]; second Table 4, 0.5 ppm): 5 (Disease sign is observed on the leaf in about 30%.)
Foliar Treatment, Protective Effect (Sphaerotheca fuliginea [3]; second Table 4, 0.5 ppm): 0
Soil Treatment, Protective Effect (Sphaerotheca fuliginea [3]; second Table 4, 0.5 ppm): 0
Foliar Treatment, Curative Effect (Sphaerotheca fuliginea [3]; second Table 4, 2.0 ppm): 9
Foliar Treatment, Protective Effect (Sphaerotheca fuliginea [3]; second Table 4, 2.0 ppm): 5 (Disease sign is observed on the leaf in about 30%.)
Soil Treatment, Protective Effect (Sphaerotheca fuliginea [3]; second Table 4, 2.0 ppm): 5 (Disease sign is observed on the leaf in about 30%.)
Foliar Treatment, Curative Effect (Sphaerotheca fuliginea [3]; second Table 4, 7.8 ppm): 10
Foliar Treatment, Protective Effect (Sphaerotheca fuliginea [3]; second Table 4, 7.8 ppm): 10
Soil Treatment, Protective Effect (Sphaerotheca fuliginea [3]; second Table 4, 7.8 ppm): 10
Foliar Treatment, Curative Effect (Sphaerotheca fuliginea [3]; second Table 4, 31.3 ppm): 10
Foliar Treatment, Protective Effect (Sphaerotheca fuliginea [3]; second Table 4, 31.3 ppm): 10
Soil Treatment, Protective Effect (Sphaerotheca fuliginea [3]; second Table 4, 31.3 ppm): 10
Percent Disease Control, Curative Spraying (Sclerotinia sclerotiorum; 31.3 ppm): 77%
Percent Disease Control, Protective Spraying (Sclerotinia sclerotiorum; 31.3 ppm): 56%
Percent Disease Control, Curative Spraying (Sclerotinia sclerotiorum; 125 ppm): 97%
Percent Disease Control, Protective Spraying (Sclerotinia sclerotiorum; 125 ppm): 80%
Percent Disease Control, Curative Spraying (Botrytis cinerea; Table 2, 31.3 ppm): 48%
Percent Disease Control, Protective Spraying (Botrytis cinerea; Table 2, 31.3 ppm): 40%
Percent Disease Control, Curative Spraying (Botrytis cinerea; Table 2, 125 ppm): 79%
Percent Disease Control, Protective Spraying (Botrytis cinerea; Table 2, 125 ppm): 100%
Gray Mold, Percent Disease Control, Curative Spraying (Botrytis cinerea; Table 9, 7.8 ppm): 30%
Gray Mold, Percent Disease Control, Protective Spraying (Botrytis cinerea; Table 9, 7.8 ppm): 17%
Gray Mold, Percent Disease Control, Curative Spraying (Botrytis cinerea; Table 9, 31.3 ppm): 92%
Gray Mold, Percent Disease Control, Protective Spraying (Botrytis cinerea; Table 9, 31.3 ppm): 70%
Gray Mold, Percent Disease Control, Curative Spraying (Botrytis cinerea; Table 9, 125 ppm): 98%
Gray Mold, Percent Disease Control, Protective Spraying (Botrytis cinerea; Table 9, 125 ppm): 80%

MIC (Cladosporium herbarum): 6.25 µg/mL (≈ 22.5 µM)
MIC (Diaporthe citri): 12.5 µg/mL (≈ 45 µM)
MIC (Pyrenophora graminea): 12.5 µg/mL (≈ 45 µM)
MIC (Monilinia fructicola): 0.78 µg/mL (≈ 2.81 µM)
MIC (Alternaria kikuchiana): 50 µg/mL (≈ 180 µM)
MIC (Corticium rolfsii): > 50 µg/mL
MIC (Ustilago nuda): 12.5 µg/mL (≈ 45 µM)
MIC (Cochiobolus sativus): 6.25 µg/mL (≈ 22.5 µM)
SMILES: O[C@@]1(c2ccc(Cl)cc2)CCCC[C@H]1n1cncn1 (relative stereo) [Compound 22, cis-1-(4-chlorophenyl)-2-(1,2,4-triazol-1-yl)cyclohexanol]
Protective Effect by Vapor (Sphaerotheca fuliginea [1]; Table 6, 0.5 ppm): -
Protective Effect by Vapor (Sphaerotheca fuliginea [1]; Table 6, 2.0 ppm): -
Protective Effect by Vapor (Sphaerotheca fuliginea [1]; Table 6, 7.8 ppm): +
Protective Effect by Vapor (Sphaerotheca fuliginea [1]; Table 6, 31.3 ppm): +
Powdery mildew, Vapor Effect (Sphaerotheca fuliginea [1]; Table 9, 2.0 ppm): -
Powdery mildew, Vapor Effect (Sphaerotheca fuliginea [1]; Table 9, 7.8 ppm): ±
Powdery mildew, Vapor Effect (Sphaerotheca fuliginea [1]; Table 9, 31.3 ppm): +
times more effective than the corresponding trans isomer [2]: 4-16 times
Percent Disease Control, Curative Spraying (Puccinia coronata; 12.5 ppm): 64%
Percent Disease Control, Protective Spraying (Puccinia coronata; 12.5 ppm): 100%
Percent Disease Control, Curative Spraying (Puccinia coronata; 25 ppm): 88%
Percent Disease Control, Protective Spraying (Puccinia coronata; 25 ppm): 100%
Percent Disease Control, Curative Spraying (Puccinia coronata; 50 ppm): 100%
Percent Disease Control, Protective Spraying (Puccinia coronata; 50 ppm): 100%
Powdery mildew, Foliar Treatment, Curative Effect (Sphaerotheca fuliginea [3]; Table 9, 0.03 ppm): 9
Powdery mildew, Foliar Treatment, Protective Effect (Sphaerotheca fuliginea [3]; Table 9, 0.03 ppm): 0
Powdery mildew, Foliar Treatment, Curative Effect (Sphaerotheca fuliginea [3]; Table 9, 0.12 ppm): 10
Powdery mildew, Foliar Treatment, Protective Effect (Sphaerotheca fuliginea [3]; Table 9, 0.12 ppm): 9
Powdery mildew, Foliar Treatment, Curative Effect (Sphaerotheca fuliginea [3]; Table 9, 0.5 ppm): 10
Powdery mildew, Foliar Treatment, Protective Effect (Sphaerotheca fuliginea [3]; Table 9, 0.5 ppm): 10
Powdery mildew, Soil Treatment, Protective Effect (Sphaerotheca fuliginea [3]; Table 9, 0.5 ppm): 0
Powdery mildew, Foliar Treatment, Curative Effect (Sphaerotheca fuliginea [3]; Table 9, 2.0 ppm): 10
Powdery mildew, Foliar Treatment, Protective Effect (Sphaerotheca fuliginea [3]; Table 9, 2.0 ppm): 10
Powdery mildew, Soil Treatment, Protective Effect (Sphaerotheca fuliginea [3]; Table 9, 2.0 ppm): 10
Powdery mildew, Soil Treatment, Protective Effect (Sphaerotheca fuliginea [3]; Table 9, 7.8 ppm): 10
Powdery mildew, Soil Treatment, Protective Effect (Sphaerotheca fuliginea [3]; Table 9, 31.3 ppm): 10
Foliar Treatment, Curative Effect (Sphaerotheca fuliginea [3]; second Table 4, 0.5 ppm): 10
Foliar Treatment, Protective Effect (Sphaerotheca fuliginea [3]; second Table 4, 0.5 ppm): 5 (Disease sign is observed on the leaf in about 30%.)
Soil Treatment, Protective Effect (Sphaerotheca fuliginea [3]; second Table 4, 0.5 ppm): 0
Foliar Treatment, Curative Effect (Sphaerotheca fuliginea [3]; second Table 4, 2.0 ppm): 10
Foliar Treatment, Protective Effect (Sphaerotheca fuliginea [3]; second Table 4, 2.0 ppm): 10
Soil Treatment, Protective Effect (Sphaerotheca fuliginea [3]; second Table 4, 2.0 ppm): 5 (Disease sign is observed on the leaf in about 30%.)
Foliar Treatment, Curative Effect (Sphaerotheca fuliginea [3]; second Table 4, 7.8 ppm): 10
Foliar Treatment, Protective Effect (Sphaerotheca fuliginea [3]; second Table 4, 7.8 ppm): 10
Soil Treatment, Protective Effect (Sphaerotheca fuliginea [3]; second Table 4, 7.8 ppm): 10
Foliar Treatment, Curative Effect (Sphaerotheca fuliginea [3]; second Table 4, 31.3 ppm): 10
Foliar Treatment, Protective Effect (Sphaerotheca fuliginea [3]; second Table 4, 31.3 ppm): 10
Soil Treatment, Protective Effect (Sphaerotheca fuliginea [3]; second Table 4, 31.3 ppm): 10
Percent Disease Control, Curative Spraying (Sclerotinia sclerotiorum; 31.3 ppm): 93%
Percent Disease Control, Protective Spraying (Sclerotinia sclerotiorum; 31.3 ppm): 67%
Percent Disease Control, Curative Spraying (Sclerotinia sclerotiorum; 125 ppm): 95%
Percent Disease Control, Protective Spraying (Sclerotinia sclerotiorum; 125 ppm): 100%
Percent Disease Control, Curative Spraying (Botrytis cinerea; Table 2, 31.3 ppm): 46%
Percent Disease Control, Protective Spraying (Botrytis cinerea; Table 2, 31.3 ppm): 100%
Percent Disease Control, Curative Spraying (Botrytis cinerea; Table 2, 125 ppm): 89%
Percent Disease Control, Protective Spraying (Botrytis cinerea; Table 2, 125 ppm): 100%
Gray Mold, Percent Disease Control, Curative Spraying (Botrytis cinerea; Table 9, 7.8 ppm): 20%
Gray Mold, Percent Disease Control, Protective Spraying (Botrytis cinerea; Table 9, 7.8 ppm): 35%
Gray Mold, Percent Disease Control, Curative Spraying (Botrytis cinerea; Table 9, 31.3 ppm): 88%
Gray Mold, Percent Disease Control, Protective Spraying (Botrytis cinerea; Table 9, 31.3 ppm): 62%
Gray Mold, Percent Disease Control, Curative Spraying (Botrytis cinerea; Table 9, 125 ppm): 82%
Gray Mold, Percent Disease Control, Protective Spraying (Botrytis cinerea; Table 9, 125 ppm): 78%
